# Laboratory results reported in patent US20240382434A1, “CARYOPHYLLENE-CONTAINING COMPOSITION” (SUNSHO PHARMACEUTICAL CO., LTD., priority 2021, published 2024).
# Key:
# Format in all cases: physicochemical
# Settings in all cases: conclusion in words
# [1] = Experiment 3: Freezing resistance
# Method: The amounts (parts by mass (pbm)) of the ingredients shown in the table below were mixed and placed into 20-mL lidded glass bottles to dissolve into solutions. The lidded glass bottles were placed into a water bath set at 25° C. After the temperature reached 25° C., the bottles were kept warm for 30 minutes to adjust the temperature.
# Then, the glass bottles were placed in a freezer (at approximately −20° C.). The freezer was opened every 30 minutes to visually check if each solution had solidified. The time point when the solution was partially solidified and the time point when the solution was completely solidified were recorded. Check was made every 30 minutes until 360 minutes had passed, and then 3 days later, visual check was made again. When the menthol had not solidified after 3 days, the result was recorded as non-solidified.
# [2] = Experiment 1: Volatilization of menthol
# Method: The prepared compositions were placed in petri dishes and used as test samples.
# Each test sample was allowed to volatilize without being covered under room temperature conditions for a certain period of time. The mass of each test sample was measured at a given time point. The volatilization amount and rate were calculated from the measured values.
# Similarly, the volatilization amount and rate of a test sample using only caryophyllene were also calculated.
# The time constant was calculated from the measurement results [by subtracting the volatilization amount of caryophyllene (theoretical value)].
# In the table, the unit of the time constant is hour (h) (the same applies hereinafter).
# [3] = Experiment 2: Dissolution of menthol
# Method: The amounts (parts by mass (pbm)) of the ingredients shown in the table below were placed into 20-mL lidded glass bottles.
# The lidded glass bottles were placed into a water bath set at 25° C. After the temperature reached 25° C., the bottles were kept warm for 30 minutes to adjust the temperature.
# The temperature was continuously kept at 25° C. With every 20 minutes, the lidded glass bottles were inverted for mixing and checked visually to see if the menthol had dissolved. The time to complete dissolution was recorded as the time required for the menthol to dissolve. Check was made every 20 minutes until 360 minutes had passed, and then 3 days later, visual check was made again. When the menthol had not dissolved after 3 days, the result was recorded as non-dissolved.
substance,measurement,setting,value
Caryophyllene,Effect on freezing resistance of the MCT,[1],improved freezing resistance of the MCT
same,Effect on volatilization of menthol,[2],enhances volatilization of menthol
same,Effect on dissolution of menthol,[3],enhanced dissolution of menthol
